Data published in patent US20220387440A1, “FORMULATIONS FOR USE IN THE PREVENTION AND/OR TREATMENT OF PERIPHERAL NEUROPATHY AND ITS ASSOCIATED DISEASES” (priority 2019, published 2022).
Where “and” joins values, the source holds several entries; their conditions need not be identical. Equal entries are not always repeated. Where two headings read alike, the source gives them in different places.

Assays:
glucose-treated DRGs = test: Degree of neuroprotection, sum of scores of all HCS parameters; conditions: for Total score of neuroprotection (sum of individual scores): glucose-treated DRGs; for Neuroprotection degree: prior to assault with 150 mM glucose
From the text: For all the studied parameters, a variation of at least 20% in fluorescence intensity or in the corresponding morphological parameter in relation to untreated cultures was considered. […] From this calculation, a neuroprotective scale was established: high (>6), moderate (4-5), low (1-3), and no neuroprotection (0).
In order to compare the degree of neuroprotection of the tested compound at different concentrations, different scores were created according to the level of the alteration (the group formation criterion is described in material and methods section) and then a value was assigned to each parameter. The sum of all the values for each parameter and concentration tested was calculated, and four distinct groups were created according to their level of neuroprotection.

peripheral nerves = conditions: injected into the spinal cord compartment of cerebral spinal fluid; cited from earlier work
eye = conditions: higher concentrations, accidental use instead of Trypan Blue during cataract surgery; cited from earlier work
[1] = diluted with sodium chloride 0.9%; cited from earlier work
[2] = tested on: rat dorsal root ganglion neurons (DRG); conditions: for Score of neuroprotection, Extremity count / Score of neuroprotection, Total length: glucose-treated DRGs
Method: In vitro injury was induced in DRGs culture by glucose treatment (150 mM) for 48 hours. […] By using HCS technology, cell parameters associated with neurite outgrowth—an indication of pre-lethal cytotoxic effects—were measured at single cell level, which allows high-throughput screening.
(§1) Primary cultures of dorsal rat ganglion neurons were prepared from the dorsal ganglions of neonatal Sprague-Dawley rats at day 8. […] Cells were maintained in neurobasal medium supplemented with B-27 component for 8 days at 37° C. in a humidified 5% CO2 atmosphere.
Beta-Ill tubulin staining: Beta-Ill tubulin staining was determined by Immunohistochemistry (IHQ). Cells were washed with PBS (Sigma Aldrich # Cat.D8537) and fixed with methanol for 10 minutes. After the fixation step the samples were washed three times with PBS and permeabilized with PBS+0.3% triton for 10 minutes. The samples were then blocked with PBS+Bovine Serum Albumine (BSA) for 30 minutes and finally anti-beta tubulin Ill antibody (Abcam # Cat.ab7751) were added at 1/1000 in PBS+0.5% BSA for 60 minutes at room temperature. […] The samples were then washed three times and measured under automated fluorescent microscope. To investigate the role of neurite extension, two geometric patterns were mainly employed in this study: total neurite length (total length of the path from a neuron body), and number of extremities (number of terminating neurite segments per neuron).
In order to acquire enough cells for the analysis, nine fields per well were imaged. The 20× objective was used to collect images for the distinct fluorescence channels. Dyes were excited and their fluorescence was monitored at the excitation and emission wavelengths with appropriate filter settings. In the setting up of the procedure, exposure times were adjusted in order to avoid overlapping emission between different probes. The collected images were analyzed using a module that allows the simultaneous quantification of subcellular structures, which are stained by different molecular probes to measure the fluorescence intensity associated with predefined nuclear and cytoplasmic compartments.

[3] = tested on: rat dorsal root ganglion neurons (DRG); test: WST-8 assay of viable cells, glucose toxicity; conditions: for Score of neuroprotection, WST8: glucose-treated DRGs
Method: as §1
2. WST-8 assay: For detection of viable cells, 10 μl of CCK-8 reagent (WST-8) were added to each well and the plate was incubated at 37° C. After 1 hour, absorbance was measured at 450 nm using the Synergy II microplate reader.

[4] = tested on: rat dorsal root ganglion neurons (DRG); test: Cell number by hoechst 33342 nucleic acid stain (HCS), glucose toxicity; conditions: for Score of neuroprotection, HOECHST: glucose-treated DRGs
From the text: This dye allows a sensitive cell number determination by fluorescence microscopy.

[5] = MB 0.0005 uM (with glu 150 mM, 48 h)
[6] = MB 0.0005 uM (with glu 150 mM, 48 h), listed as MB
[7] = MB 0.005 uM (with glu 150 mM, 48 h)
[8] = MB 0.005 uM (with glu 150 mM, 48 h), listed as MB
[9] = MB 0.05 uM (with glu 150 mM, 48 h)
[10] = MB 0.05 uM (with glu 150 mM, 48 h), listed as MB
[11] = MB 0.5 uM (with glu 150 mM, 48 h)
[12] = MB 0.5 uM (with glu 150 mM, 48 h), listed as MB
[13] = MB 5 uM (with glu 150 mM, 48 h)
[14] = MB 5 uM (with glu 150 mM, 48 h), listed as MB
[15] = MB 50 uM (with glu 150 mM, 48 h)
[16] = MB 50 uM (with glu 150 mM, 48 h), listed as MB
[17] = Sprague-Dawley, rat, 48 h, 150 mM

## CN(C)c1ccc2nc3ccc(N(C)C)cc3[s+]c2c1 [methylene blue, 3,7-bis(dimethylamino) phenothiazin-5-ium chloride]
glucose-treated DRGs; 0.0005 μM
  Total score of neuroprotection (sum of individual scores): 3
  Neuroprotection degree: low (low (1-3))
glucose-treated DRGs; 0.005 μM
  Total score of neuroprotection (sum of individual scores): 3
  Neuroprotection degree: low (low (1-3))
glucose-treated DRGs; 0.05 μM
  Total score of neuroprotection (sum of individual scores): 5
  Neuroprotection degree: moderate (moderate (4-5))
glucose-treated DRGs; 0.5 μM
  Total score of neuroprotection (sum of individual scores): 3
  Neuroprotection degree: low (low (1-3))
glucose-treated DRGs; 5 μM
  Total score of neuroprotection (sum of individual scores): 0
  Neuroprotection degree: no (no neuroprotection (0))
glucose-treated DRGs; 50 μM
  Total score of neuroprotection (sum of individual scores): −6
glucose-treated DRGs; concentrations from 0.0005 μM to 0.5 μM
  neuroprotection against glucose-induced DRGs toxicity, all parameters: some neuroprotection
Peripheral nerves
  nerve toxicity after injection into cerebral spinal fluid: massive peripheral nerves damage and resultant total paraplegia
eye
  ocular toxicity: irreversible blindness, corneal edema
[1]
  compatibility with saline: precipitation has been reported
[2]; 0.0005 μM
  Score of neuroprotection, Extremity count: 0 (no neuroprotection or variation lower than 20%)
  Score of neuroprotection, Total length: 0 (no neuroprotection or variation lower than 20%)
[2]; 0.005 μM
  Score of neuroprotection, Extremity count: 0 (no neuroprotection or variation lower than 20%)
  Score of neuroprotection, Total length: 0 (no neuroprotection or variation lower than 20%)
[2]; 0.05 μM with 150 mM glucose
  re-establishment of neurite outgrowth affected by glucose: could re-establish the affected neurite outgrowth
[2]; 0.05 μM
  Score of neuroprotection, Extremity count: 1 (variation 20-40%)
  Score of neuroprotection, Total length: 1 (variation 20-40%)
[2]; 0.5 μM
  Score of neuroprotection, Extremity count: 0 (no neuroprotection or variation lower than 20%)
  Score of neuroprotection, Total length: 0 (no neuroprotection or variation lower than 20%)
[2]; 5 μM
  Score of neuroprotection, Extremity count: −1 (variation 20-40%)
  Score of neuroprotection, Total length: 0 (no neuroprotection or variation lower than 20%)
[2]; 50 μM
  Score of neuroprotection, Extremity count: −3 (variation 40-60%)
  Score of neuroprotection, Total length: −1 (variation 20-40%)
[2]; [5]
  Extremity count/neuron, Mean % of control: 77.9 % of control
  Extremity count/neuron, mean: 0.966
  Total length per neuron, Mean % of control: 70.88 % of control
  Total length per neuron, mean: 50.15
[2]; [6]
  Extremity count/neuron (single replicates): 1.058 and 0.8613 and 0.9784
  Total length per neuron (single replicates): 50.96 and 40.13 and 59.36
[2]; [7]
  Extremity count/neuron, Mean % of control: 82.24 % of control
  Extremity count/neuron, mean: 1.02
  Total length per neuron, Mean % of control: 74.22 % of control
  Total length per neuron, mean: 52.51
[2]; [8]
  Extremity count/neuron (single replicates): 0.8645 and 1.19 and 1.005
  Total length per neuron (single replicates): 45.83 and 61.19 and 50.5
[2]; [9]
  Extremity count/neuron, Mean % of control: 95.29 % of control
  Extremity count/neuron, mean: 1.182
  Total length per neuron, Mean % of control: 86.27 % of control
  Total length per neuron, mean: 61.03
[2]; [10]
  Extremity count/neuron (single replicates): 1.345 and 1.059 and 1.141
  Total length per neuron (single replicates): 62.91 and 50.39 and 69.8
[2]; [11]
  Extremity count/neuron, Mean % of control: 61.57 % of control
  Extremity count/neuron, mean: 0.7634
  Total length per neuron, Mean % of control: 56.15 % of control
  Total length per neuron, mean: 39.72
[2]; [12]
  Extremity count/neuron (single replicates): 0.6567 and 0.8552 and 0.7784
  Total length per neuron (single replicates): 37.34 and 47.77 and 34.07
[2]; [13]
  Extremity count/neuron, Mean % of control: 52.97 % of control
  Extremity count/neuron, mean: 0.6568
  Total length per neuron, Mean % of control: 60.36 % of control
  Total length per neuron, mean: 42.7
[2]; [14]
  Extremity count/neuron (single replicates): 0.8559 and 0.5369 and 0.5777
  Total length per neuron (single replicates): 53.61 and 42.2 and 32.3
[2]; [15]
  Extremity count/neuron, Mean % of control: 20.98 % of control
  Extremity count/neuron, mean: 0.2601
  Total length per neuron, Mean % of control: 22.74 % of control
  Total length per neuron, mean: 16.09
[2]; [16]
  Extremity count/neuron (single replicates): 0.2833 and 0.2345 and 0.2625
  Total length per neuron (single replicates): 18.18 and 12.64 and 17.45
[3]; 0.0005 μM
  Score of neuroprotection, WST8: 0 (no neuroprotection or variation lower than 20%)
[3]; 0.005 μM
  Score of neuroprotection, WST8: 0 (no neuroprotection or variation lower than 20%)
[3]; 0.05 μM
  Score of neuroprotection, WST8: 0 (no neuroprotection or variation lower than 20%)
[3]; 0.5 μM
  Score of neuroprotection, WST8: 0 (no neuroprotection or variation lower than 20%)
[3]; 5 μM
  Score of neuroprotection, WST8: 0 (no neuroprotection or variation lower than 20%)
[3]; 50 μM with 150 mM glucose
  viability (WST8) in addition to glucose: decrease in viability
[3]; 50 μM
  Score of neuroprotection, WST8: −1 (variation 20-40%)
[3]; 0.0005-50 μM with 150 mM glucose
  prevention of glucose induced viability decrease (WST8): could not prevent glucose induced viability decrease
[4]; 0.0005 μM
  Score of neuroprotection, HOECHST: 3 (variation 60-100%)
[4]; 0.005 μM
  Score of neuroprotection, HOECHST: 3 (variation 60-100%)
[4]; 0.05 μM
  Score of neuroprotection, HOECHST: 3 (variation 60-100%)
[4]; 0.5 μM
  Score of neuroprotection, HOECHST: 3 (variation 60-100%)
[4]; 5 μM
  Score of neuroprotection, HOECHST: 1 (variation 20-40%)
[4]; 50 μM
  Score of neuroprotection, HOECHST: −1 (variation 20-40%)
[4]; [5]
  Cell viability by Hoechst, Mean % of control: 100.3 % of control
  Cell viability by Hoechst, mean: 221.7
[4]; [6]
  Cell viability by Hoechst (single replicates): 187 and 236 and 242
[4]; [7]
  Cell viability by Hoechst, Mean % of control: 115.1 % of control
  Cell viability by Hoechst, mean: 254.3
[4]; [8]
  Cell viability by Hoechst (single replicates): 255 and 290 and 218
[4]; [9]
  Cell viability by Hoechst, Mean % of control: 115.2 % of control
  Cell viability by Hoechst, mean: 254.7
[4]; [10]
  Cell viability by Hoechst (single replicates): 270 and 253 and 241
[4]; [11]
  Cell viability by Hoechst, Mean % of control: 109.2 % of control
  Cell viability by Hoechst, mean: 241.3
[4]; [12]
  Cell viability by Hoechst (single replicates): 234 and 217 and 273
[4]; [13]
  Cell viability by Hoechst, Mean % of control: 64.56 % of control
  Cell viability by Hoechst, mean: 142.7
[4]; [14]
  Cell viability by Hoechst (single replicates): 168 and 103 and 157
[4]; [15]
  Cell viability by Hoechst, Mean % of control: 30.92 % of control
  Cell viability by Hoechst, mean: 68.33
[4]; [16]
  Cell viability by Hoechst (single replicates): 74 and 69 and 62
[4]; all concentrations (0.0005-5 μM), dose dependent, except 50 μM, co-incubation with 150 mM glucose
  prevention of glucose-induced mortality: could prevent glucose-induced mortality

## O=C[C@H](O)[C@@H](O)[C@H](O)[C@H](O)CO [Glucose, glucose]
[2]; Glucose (Alone) 150 mM, 48 h
  Extremity count/neuron (single replicates): 0.82 and 0.9862 and 0.7818
  Extremity count/neuron, Mean % of control: 69.57 % of control
  Extremity count/neuron, mean: 0.8627
  Total length per neuron (single replicates): 42.95 and 52.97 and 37.56
  Total length per neuron, Mean % of control: 62.89 % of control
  Total length per neuron, mean: 44.49
[2]; [17]
  decrease in neurite extremity count compared to untreated cells: 31%
  decrease in neurite total length compared to untreated cells: 38%
[3]; glucose 150 mM, 48 h
  viability reduction in DRGs measured by WST8: 22%
[4]; Glucose (Alone) 150 mM, 48 h
  Cell viability by Hoechst (single replicates): 125 and 104 and 81
  Cell viability by Hoechst, Mean % of control: 46.76 % of control
  Cell viability by Hoechst, mean: 103.3
[4]; [17]
  mortality in neurons: 54%
